pEC50: −log10 of the molar value. Where two headings read alike, the source gives them in different places.
Experiments:
CfEcR-DEF mutant F48L = CfEcR-DEF mutant F48L (Choristoneura fumiferana, UniProt O77255, F331L); test: cell-based
Method: (§1) This construct was prepared in the same way as in switch 1.1 above except wild-type CfEcR-DEF was replaced with mutant CfEcR-DEF comprising a ligand binding domain comprising a substitution mutation selected from Table 1 below.
(§2) DNAs were transfected into mouse NIH3T3 cells (ATCC) as follows. Standard methods for culture and maintenance of the cells were followed. Cells were harvested and plated 96-well plates at 2,500 cells per well, in 50 μL of growth medium containing 10% fetal bovine serum (FBS). Twenty-four hours later, the cells were treated with 35 μL of serum-free growth medium containing either dimethylsulfoxide (DMSO; control) or a DMSO solution of ligand. The cells were then transfected using Superfect (Qiagen Inc.) transfection reagent. For each well, 0.625 μL of Superfect was mixed with 14.2 μL of serum-free growth medium. 0.16 μg of reporter construct and 0.04 μg of each receptor construct were added to the transfection reagent mix. The contents of the transfection mix were mixed in a vortex mixer and let stand at room temperature for 30 minutes. At the end of incubation, 15 μL of transfection mix was added to the cells. The cells were maintained at 37° C. and 5% CO2 for 48 hours in 5% FBS.
(§3) Reporter Assays: Cells were harvested 40 hours after adding ligands. 125 μL of passive lysis buffer (part of Dual-Luciferase reporter assay system from Promega Corporation) were added to each well of the […] plate. The plates were placed on a rotary shaker for 15 minutes. Twenty μL of lysate were assayed. Luciferase activity was measured using Dual-Luciferase reporter assay system from Promega Corporation following the manufacturer's instructions. Fold induction (FI) activities were calculated by dividing relative light units (“RLU”) in ligand treated cells with RLU in DMSO treated cells (untreated control).

CfEcR-DEF mutant R95H = CfEcR-DEF mutant R95H (Choristoneura fumiferana, UniProt O77255, R378H); test: cell-based
Chain of CfEcR-DEF mutant R95H (P28702 299-449): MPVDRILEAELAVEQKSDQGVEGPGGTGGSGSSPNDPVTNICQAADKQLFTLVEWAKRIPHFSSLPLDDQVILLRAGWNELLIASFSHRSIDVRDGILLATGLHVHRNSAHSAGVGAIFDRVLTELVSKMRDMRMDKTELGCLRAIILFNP
Chain of CfEcR-DEF mutant R95H (O77255 entry or part of it R378H): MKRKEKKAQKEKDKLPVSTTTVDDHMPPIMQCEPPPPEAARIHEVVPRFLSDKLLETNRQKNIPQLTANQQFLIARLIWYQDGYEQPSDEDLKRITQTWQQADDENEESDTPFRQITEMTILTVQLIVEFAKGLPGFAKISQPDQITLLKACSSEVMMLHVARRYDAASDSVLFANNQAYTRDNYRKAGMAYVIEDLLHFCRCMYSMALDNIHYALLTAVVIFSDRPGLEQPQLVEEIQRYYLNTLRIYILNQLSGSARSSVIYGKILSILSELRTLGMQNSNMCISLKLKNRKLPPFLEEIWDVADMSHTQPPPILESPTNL
Method: as §1, §2, §3

[1] = biological target: CfEcR-DEF mutant V107I/Y127E/A110P (Choristoneura fumiferana, UniProt O77255, A393P/V390I/Y410E); test: cell-based
Chain of CfEcR-DEF mutant V107I/Y127E/A110P (P28702 299-449, stated change not applied): as the sequence (P28702 299-449) above
Chain of CfEcR-DEF mutant V107I/Y127E/A110P (O77255 entry or part of it V390I/A393P/Y410E): as the sequence (O77255 entry or part of it R378H) above, with H160R, V172I, A175P, Y192E counted along it
Method: as §1, §2, §3

[2] = biological target: CfEcR-DEF mutant V128F/A110P (Choristoneura fumiferana, UniProt O77255, A393P/V411F); test: cell-based
Chain of CfEcR-DEF mutant V128F/A110P (P28702 299-449, stated change not applied): as the sequence (P28702 299-449) above
Chain of CfEcR-DEF mutant V128F/A110P (O77255 entry or part of it A393P/V411F): as the sequence (O77255 entry or part of it R378H) above, with H160R, A175P, V193F counted along it
Method: as §1, §2, §3

CfEcR-DEF mutant V96S = CfEcR-DEF mutant V96S (Choristoneura fumiferana, UniProt O77255, V379S); test: cell-based
Chain of CfEcR-DEF mutant V96S (O77255 entry or part of it V379S): as the sequence (O77255 entry or part of it R378H) above, with H160R, V161S counted along it
Chain of CfEcR-DEF mutant V96S (P28702 299-449, further chain): as the sequence (P28702 299-449) above
Method: as §1, §2, §3

CfEcR-DEF mutant A110N = CfEcR-DEF mutant A110N (Choristoneura fumiferana, UniProt O77255, A393N); test: cell-based; parameters: Concentration (mM) at max FI: unit not given here
Chain of CfEcR-DEF mutant A110N (O77255 entry or part of it A393N): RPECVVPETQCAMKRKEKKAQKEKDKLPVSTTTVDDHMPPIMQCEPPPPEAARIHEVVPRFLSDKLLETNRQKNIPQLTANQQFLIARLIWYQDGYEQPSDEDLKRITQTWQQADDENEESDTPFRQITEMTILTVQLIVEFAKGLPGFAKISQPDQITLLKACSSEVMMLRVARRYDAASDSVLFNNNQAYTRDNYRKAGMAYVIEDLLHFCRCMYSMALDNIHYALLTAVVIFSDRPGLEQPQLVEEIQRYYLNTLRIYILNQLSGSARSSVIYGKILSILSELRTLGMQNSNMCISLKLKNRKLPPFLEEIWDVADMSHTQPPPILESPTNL
Chain of CfEcR-DEF mutant A110N (P28702 299-449, stated change not applied, further chain): as the sequence (P28702 299-449) above
Method: as §1, §2, §3

CfEcR-DEF mutant F109M = CfEcR-DEF mutant F109M (Choristoneura fumiferana, UniProt O77255, F392M); test: cell-based; parameters: Concentration (mM) at max FI: unit not given here
Chain of CfEcR-DEF mutant F109M (O77255 entry or part of it F392M): as the sequence (O77255 entry or part of it A393N) above, with F186M, N187A counted along it
Chain of CfEcR-DEF mutant F109M (P28702 299-449, further chain): as the sequence (P28702 299-449) above
Method: as §1, §2, §3

CfEcR-DEF mutant F48W = CfEcR-DEF mutant F48W (Choristoneura fumiferana, UniProt O77255, F331W); test: cell-based; parameters: Concentration (mM) at max FI: unit not given here
Chain of CfEcR-DEF mutant F48W (P28702 299-449): as above
Chain of CfEcR-DEF mutant F48W (O77255 entry or part of it F331W): as the sequence (O77255 entry or part of it A393N) above, with F125W, N187A counted along it
Method: as §1, §2, §3

CfEcR-DEF mutant F48Y = CfEcR-DEF mutant F48Y (Choristoneura fumiferana, UniProt O77255, F331Y); test: cell-based; parameters: Concentration (mM) at max FI: unit not given here
Chain of CfEcR-DEF mutant F48Y (O77255 entry or part of it F331Y): as the sequence (O77255 entry or part of it A393N) above, with F125Y, N187A counted along it
Chain of CfEcR-DEF mutant F48Y (P28702 299-449, further chain): as the sequence (P28702 299-449) above
Method: as §1, §2, §3

CfEcR-DEF mutant T52P = CfEcR-DEF mutant T52P (Choristoneura fumiferana, UniProt O77255, T335P); test: cell-based; parameters: Concentration (mM) at max FI: unit not given here
Chain of CfEcR-DEF mutant T52P (P28702 298-449): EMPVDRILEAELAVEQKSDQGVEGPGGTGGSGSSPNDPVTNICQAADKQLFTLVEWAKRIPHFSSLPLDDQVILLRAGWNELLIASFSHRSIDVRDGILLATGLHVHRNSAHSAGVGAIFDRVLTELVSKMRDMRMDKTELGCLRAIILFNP
Chain of CfEcR-DEF mutant T52P (O77255 entry or part of it T335P): as the sequence (O77255 entry or part of it A393N) above, with T129P, N187A counted along it
Method: as §1, §2, §3

CfEcR-DEF mutant V128F = CfEcR-DEF mutant V128F (Choristoneura fumiferana, UniProt O77255, V411F); test: cell-based; parameters: Concentration (mM) at max FI: unit not given here
Chain of CfEcR-DEF mutant V128F (P28702 299-449): as the sequence (P28702 299-449) above
Chain of CfEcR-DEF mutant V128F (O77255 entry or part of it V411F): as the sequence (O77255 entry or part of it R378H) above, with H160R, V193F counted along it
Method: as §1, §2, §3

CfEcR-DEF mutant V96E = CfEcR-DEF mutant V96E (Choristoneura fumiferana, UniProt O77255, V379E); test: cell-based; parameters: Concentration (mM) at max FI: unit not given here
Chain of CfEcR-DEF mutant V96E (O77255 entry or part of it V379E): as the sequence (O77255 entry or part of it R378H) above, with H160R, V161E counted along it
Chain of CfEcR-DEF mutant V96E (P28702 299-449, further chain): as the sequence (P28702 299-449) above
Method: as §1, §2, §3

CfEcR-DEF mutant W238E = CfEcR-DEF mutant W238E (Choristoneura fumiferana, UniProt O77255, W521E); test: cell-based; parameters: Concentration (mM) at max FI: unit not given here
Chain of CfEcR-DEF mutant W238E (P28702 299-449): as above
Chain of CfEcR-DEF mutant W238E (O77255 entry or part of it W521E): as the sequence (O77255 entry or part of it R378H) above, with H160R, W303E counted along it
Method: as §1, §2, §3

CfEcR-DEF mutant Y120M = CfEcR-DEF mutant Y120M (Choristoneura fumiferana, UniProt O77255, Y403M); test: cell-based; parameters: Concentration (mM) at max FI: unit not given here
Chain of CfEcR-DEF mutant Y120M (O77255 entry or part of it Y403M): as the sequence (O77255 entry or part of it R378H) above, with H160R, Y185M counted along it
Chain of CfEcR-DEF mutant Y120M (P28702 299-449, further chain): as the sequence (P28702 299-449) above
Method: as §1, §2, §3

[3] = biological target: CfEcR-DEF mutant V107I/Y127E/G (Choristoneura fumiferana, UniProt O77255, INS541G/V390I/Y410E); test: GAL4-driven luciferase reporter assay in NIH3T3 cells; format: cell-based
Chain of CfEcR-DEF mutant V107I/Y127E/G (P28702 299-449, stated change not applied): as the sequence (P28702 299-449) above
Chain of CfEcR-DEF mutant V107I/Y127E/G (O77255 entry or part of it V390I/Y410E/INS541G): as the sequence (O77255 entry or part of it R378H) above, with H160R counted along it
Method: as §1
The Gal-4-CfEcR-DEF(VYG) mutant was created by inserting an extra glycine at the C-terminal end of EcR substitution mutant V107I/Y127E [CfECR(VY)] by PCR. Essentially, this was done in two steps: PCR-amplification of CfEcR-DEF(VYG) and substitution of the CfEcR(VY) in the vector GAL4-CfEcR DEF(VY) pBIND 1-9 with the PCR-amplified CfEcR-DEF(VYG). The CfEcR-DEF region (with the extra glycine) was amplified by using the vector GAL4-CfEcR DEF(VY) pBIND 1-9 as template and the following PCR primers: […]
as §2, §3

CfEcR-DEF mutant L132M = CfEcR-DEF mutant L132M (Choristoneura fumiferana, UniProt O77255, L415M); test: cell-based; format: cell-based; details: for Emax: NIH3T3, 40 h, read-out: Rel Max FI, mutant L132M
Chain of CfEcR-DEF mutant L132M (O77255 entry or part of it L415M): as the sequence (O77255 entry or part of it A393N) above, with N187A, L209M counted along it
Chain of CfEcR-DEF mutant L132M (P28702 298-449, further chain): as the sequence (P28702 298-449) above
Method: as §1, §2, §3

[4] = NIH3T3, 40 h, read-out: Rel Max FI
[5] = NIH3T3, mouse, 40 h, read-out: GS-E ligand max FI (relative to DMSO)

Chain of CfEcR-DEF mutant F48L (P28702 299-449): as the sequence (P28702 299-449) above
Chain of CfEcR-DEF mutant F48L (O77255 entry or part of it F331L): as the sequence (O77255 entry or part of it R378H) above, with F113L, H160R counted along it

CCc1c(OC)cccc1C(=O)NN(C(=O)c1cc(C)cc(C)c1)C(C)(C)C [RG-102240, N-(2-ethyl-3-methoxybenzoyl)-N′-(3,5-dimethylbenzoyl)-N′-tert-butylhydrazine]
pEC50 (CfEcR-DEF mutant F48L): 6.34 | Emax (CfEcR-DEF mutant F48L; [4]): 100% | maximal fold induction (CfEcR-DEF mutant F48L; [5]): 2600 | Concentration (mM) at max FI (CfEcR-DEF mutant F48L; mutant F48L, GS-E ligand): 0.0333 mM | pEC50 (CfEcR-DEF mutant R95H): 5.80 | Emax (CfEcR-DEF mutant R95H; [4]): 100% | maximal fold induction (CfEcR-DEF mutant R95H; [5]): 3410 | Concentration (mM) at max FI (CfEcR-DEF mutant R95H; mutant R95H, GS-E ligand): 33.30 mM | pEC50 [1]: 6.52 | Emax [1, 4]: 100% | maximal fold induction [1, 5]: 2210 | Concentration (mM) at max FI ([1]; mutant V107I/Y127E/A110P, GS-E ligand): 10 mM | pEC50 [2]: ~5.10 | Emax [2, 4]: 100% | maximal fold induction [2, 5]: 2960 | Concentration (mM) at max FI ([2]; mutant V128F/A110P, GS-E ligand): 33.30 mM | pEC50 (CfEcR-DEF mutant V96S): 5.94 | Emax (CfEcR-DEF mutant V96S; [4]): 100% | maximal fold induction (CfEcR-DEF mutant V96S; [5]): 1830 | Concentration (mM) at max FI (CfEcR-DEF mutant V96S; mutant V96S, GS-E ligand): 33.3 mM | pEC50 (CfEcR-DEF mutant A110N): 5.85 | Emax (CfEcR-DEF mutant A110N; [4]): 100% | maximal fold induction (CfEcR-DEF mutant A110N; [5]): 1680 | Concentration (mM) at max FI (CfEcR-DEF mutant A110N; mutant A110N, GS-E ligand): 10.00 | pEC50 (CfEcR-DEF mutant F109M): 6.18 | Emax (CfEcR-DEF mutant F109M; [4]): 100% | maximal fold induction (CfEcR-DEF mutant F109M; [5]): 1480 | Concentration (mM) at max FI (CfEcR-DEF mutant F109M; mutant F109M, GS-E ligand): 3.3 | pEC50 (CfEcR-DEF mutant F48W): ~6.00 | Emax (CfEcR-DEF mutant F48W; [4]): 100% | maximal fold induction (CfEcR-DEF mutant F48W; [5]): 1640 | Concentration (mM) at max FI (CfEcR-DEF mutant F48W; mutant F48W, GS-E ligand): 33.3 | pEC50 (CfEcR-DEF mutant F48Y): 5.90 | Emax (CfEcR-DEF mutant F48Y; [4]): 100% | maximal fold induction (CfEcR-DEF mutant F48Y; [5]): 1360 | Concentration (mM) at max FI (CfEcR-DEF mutant F48Y; mutant F48Y, GS-E ligand): 33.3 | pEC50 (CfEcR-DEF mutant T52P): ~5.00 | Emax (CfEcR-DEF mutant T52P; [4]): 100% | maximal fold induction (CfEcR-DEF mutant T52P; [5]): 301 | Concentration (mM) at max FI (CfEcR-DEF mutant T52P; mutant T52P, GS-E ligand): 33.3 | pEC50 (CfEcR-DEF mutant V128F; EC50, mutant V128F): < 4.48 | Emax (CfEcR-DEF mutant V128F; [4]): 0% | maximal fold induction (CfEcR-DEF mutant V128F; [5]): 550 | Concentration (mM) at max FI (CfEcR-DEF mutant V128F; mutant V128F, GS-E ligand): 33.30 | pEC50 (CfEcR-DEF mutant V96E): ~5.70 | Emax (CfEcR-DEF mutant V96E; [4]): 100% | maximal fold induction (CfEcR-DEF mutant V96E; [5]): 2960 | Concentration (mM) at max FI (CfEcR-DEF mutant V96E; mutant V96E, GS-E ligand): 33.30 | pEC50 (CfEcR-DEF mutant W238E): ~5.22 | Emax (CfEcR-DEF mutant W238E; [4]): 100% | maximal fold induction (CfEcR-DEF mutant W238E; [5]): 1020 | Concentration (mM) at max FI (CfEcR-DEF mutant W238E; mutant W238E, GS-E ligand): 33.3 | pEC50 (CfEcR-DEF mutant Y120M): ~5.40 | Emax (CfEcR-DEF mutant Y120M; [4]): 100% | maximal fold induction (CfEcR-DEF mutant Y120M; [5]): 1710 | Concentration (mM) at max FI (CfEcR-DEF mutant Y120M; mutant Y120M, GS-E ligand): 33.3 | pEC50 [3]: 6.77 | Emax [3, 4]: 100% | Emax (CfEcR-DEF mutant L132M): 100% | Emax (CfEcR-DEF mutant L132M; relative to max fold induction of GS-E ligand): 100% | maximal fold induction (CfEcR-DEF mutant L132M; [5]): 1520 | Concentration at max FI (CfEcR-DEF mutant L132M; mutant L132M, GS-E ligand): 10.00 mM
